Tested on: 953936-095-R-J2-PDC spheroids with HUVEC/MSC, viability
Assay: Anticancer human tumor 953936-095-R-J2-PDC patient-derived cervical squamous cell carcinoma cell line growth inhibition [PI3K]
Settings: for IC50: curve of first compound; for viability, T/C: stronger effect = lower value
In short: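 Tumor cells grown as multi-cell spheroids with HUVEC endothelial cells and MSC fibroblast-like stroma were treated with targeted agents combined with inavolisib, alpelisib, duvelisib or copanlisib. Doses fell in half-log steps from near clinical Cmax, else from 10 microM. Viability was measured.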
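Also: spheroids exposed to compounds for seven days before read-out.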

In the case of `CC1(C)CCC(Nc2ncc(C(F)(F)F)c(-c3c[nH]c4c(P(C)(C)=O)c(C#N)ccc34)n2)CN1` (configuration not stated) + Cc1nc(NC(=O)N2CCCC2C(N)=O)sc1-c1ccnc(C(C)(C)C(F)(F)F)c1, the IC50 (second compound 0.0316 µM) is reported as 31.6 nM, the IC50 (second compound 0.1 µM) is reported as 31.6 nM and the IC50 (second compound 0.316 µM) is reported as < 31.6 nM. For the same compound, the IC50 (second compound 1 µM) was < 31.6 nM, the IC50 (second compound 3.16 µM) was < 31.6 nM and the IC50 (second compound 10 µM) was < 31.6 nM. The viability, T/C (second compound 0.0316 µM, first compound 0.0316 µM) was 45.1%, the viability, T/C (second compound 0.0316 µM, first compound 0.1 µM) was 50% and the viability, T/C (second compound 0.0316 µM, first compound 0.316 µM) was 46.5%. The viability, T/C (second compound 0.0316 µM, first compound 1 µM) was 52.4%, the viability, T/C (second compound 0.0316 µM, first compound 3.16 µM) was 55.8% and the viability, T/C (second compound 0.0316 µM, first compound 10 µM) was 8.23%. For the same compound, the viability, T/C (second compound 0.1 µM, first compound 0.0316 µM) was 45.9%, the viability, T/C (second compound 0.1 µM, first compound 0.1 µM) was 39.1% and the viability, T/C (second compound 0.1 µM, first compound 0.316 µM) was 42.2%. The viability, T/C (second compound 0.1 µM, first compound 1 µM) was 42.6%, the viability, T/C (second compound 0.1 µM, first compound 3.16 µM) was 54.3% and the viability, T/C (second compound 0.1 µM, first compound 10 µM) was 5.8%. The viability, T/C (second compound 0.316 µM, first compound 0.0316 µM) was 38.9%, the viability, T/C (second compound 0.316 µM, first compound 0.1 µM) was 37.8% and the viability, T/C (second compound 0.316 µM, first compound 0.316 µM) was 40.8%. It also gave a viability, T/C (second compound 0.316 µM, first compound 1 µM) of 38.9%, a viability, T/C (second compound 0.316 µM, first compound 3.16 µM) of 38.3% and a viability, T/C (second compound 0.316 µM, first compound 10 µM) of 3.36%. The viability, T/C (second compound 1 µM, first compound 0.0316 µM) was 30.8%, the viability, T/C (second compound 1 µM, first compound 0.1 µM) was 27.1% and the viability, T/C (second compound 1 µM, first compound 0.316 µM) was 26%. The viability, T/C (second compound 1 µM, first compound 1 µM) was 28.1%, the viability, T/C (second compound 1 µM, first compound 3.16 µM) was 33.4% and the viability, T/C (second compound 1 µM, first compound 10 µM) was 1.62%. The viability, T/C (second compound 3.16 µM, first compound 0.0316 µM) was 18.2%, the viability, T/C (second compound 3.16 µM, first compound 0.1 µM) was 19.4% and the viability, T/C (second compound 3.16 µM, first compound 0.316 µM) was 17.2%. For the same compound, the viability, T/C (second compound 3.16 µM, first compound 1 µM) was 20.1%, the viability, T/C (second compound 3.16 µM, first compound 3.16 µM) was 13.8% and the viability, T/C (second compound 3.16 µM, first compound 10 µM) was 0.46%. For the same compound, the viability, T/C (second compound 10 µM, first compound 0.0316 µM) was 9.15%, the viability, T/C (second compound 10 µM, first compound 0.1 µM) was 9.91% and the viability, T/C (second compound 10 µM, first compound 0.316 µM) was 10.7%. For the same compound, the viability, T/C (second compound 10 µM, first compound 1 µM) was 10.3%, the viability, T/C (second compound 10 µM, first compound 3.16 µM) was 5.73% and the viability, T/C (second compound 10 µM, first compound 10 µM) was 0.31%.
